Reference: patent US10981917B2, “Heterocyclic compound, its preparation method, and pharmaceutical composition comprising the same” (Daewoong Pharmaceutical Co., Ltd., priority 2017, dated 2021)

Molecular target: PRS (prolyl-tRNA synthetase) protein, PRS portion of EPRS (Homo sapiens (Human), UniProt P07814)
Test: PRS enzyme activity inhibition experiment ([3H]proline, liquid scintillation)
Assay type: biochemical
Settings: purified PRS protein, 37° C. for 5 to 10 minutes
Summary of the method: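 Values are % inhibition or IC50 ranges (A ≤100 nM, B 100–500 nM, C ≥500 nM) from [3H]proline incorporation measured by liquid scintillation. PRS portion of human EPRS, reacted 5–10 min at 37 °C in pH 7.4 phosphate buffer containing 5 mM ATP and tRNA, compound at 1 μM.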

PRS (prolyl-tRNA synthetase) protein, PRS portion of EPRS, sequence (P07814 1007-1512): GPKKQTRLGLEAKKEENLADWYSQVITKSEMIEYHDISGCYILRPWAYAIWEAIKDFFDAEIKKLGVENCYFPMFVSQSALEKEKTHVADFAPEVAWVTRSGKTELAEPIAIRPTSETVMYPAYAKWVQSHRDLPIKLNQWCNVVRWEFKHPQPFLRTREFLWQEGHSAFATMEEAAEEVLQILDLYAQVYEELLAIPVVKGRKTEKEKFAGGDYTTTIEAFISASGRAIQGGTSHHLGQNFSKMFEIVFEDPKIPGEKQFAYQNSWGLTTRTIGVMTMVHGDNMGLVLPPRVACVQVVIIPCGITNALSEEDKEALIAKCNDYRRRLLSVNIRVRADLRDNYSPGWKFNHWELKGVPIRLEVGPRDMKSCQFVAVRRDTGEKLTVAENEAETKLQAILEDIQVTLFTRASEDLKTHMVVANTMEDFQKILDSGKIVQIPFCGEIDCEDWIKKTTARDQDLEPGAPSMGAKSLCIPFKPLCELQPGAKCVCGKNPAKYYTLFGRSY

| SMILES | IC50 |
| --- | --- |
| Cc1c(Br)ccc2c1ncn2C/C=C/[C@H]1NCCC[C@@H]1O [Example 168, (2R,3S)-2-((E)-3-(5-bromo-4-methyl-1H-benzo[d]imidazol-1-yl)prop-1-enyl)piperidin-3-ol] | 100 to 500 nM |
| Cc1cc2ncn(C/C=C/[C@H]3NCCC[C@@H]3O)c2cc1C [Example 169, (2R,3S)-2-((E)-3-(5,6-dimethyl-1H-benzo[d]imidazol-1-yl)prop-1-en-1-yl)piperidin-3-ol] | ≥ 500 nM |
| O[C@H]1CCCN[C@@H]1/C=C/Cn1cnc2cc(Br)c(Br)cc21 [Example 170, (2R,3S)-2-((E)-3-(5,6-dibromo-1H-benzo[d]imidazol-1-yl)prop-1-en-1-yl)piperidin-3-ol] | 100 to 500 nM |
| O[C@H]1CCCN[C@@H]1/C=C/Cn1cnc2cc(F)c(F)cc21 [Example 171, (2R,3S)-2-((E)-3-(5,6-difluoro-1H-benzo[d]imidazol-1-yl)prop-1-en-1-yl)piperidin-3-ol] | ≥ 500 nM |
| Cc1ccc2c(ncn2C/C=C/[C@H]2NCCC[C@@H]2O)c1C [Example 172, (2R,3S)-2-((E)-3-(4,5-dimethyl-1H-benzo[d]imidazol-1-yl)prop-1-en-1-yl)piperidin-3-ol] | ≥ 500 nM |
| Cc1c(Cl)ccc2c1ncn2C/C=C/[C@H]1NCCC[C@@H]1O [Example 173, (2R,3S)-2-((E)-3-(5-chloro-4-methyl-1H-benzo[d]imidazol-1-yl)prop-1-en-1-yl)piperidin-3-ol] | 100 to 500 nM |
| O[C@H]1CCCN[C@@H]1/C=C/Cn1cnc2c(Cl)c(Cl)ccc21 [Example 174, (2R,3S)-2-((E)-3-(4,5-dichloro-1H-benzo[d]imidazol-1-yl)prop-1-en-1-yl)piperidin-3-ol] | ≤ 100 nM |
| Cc1ccc2c(ncn2C/C=C/[C@H]2NCCC[C@@H]2O)c1Cl [Example 175, (2R,3S)-2-((E)-3-(4-chloro-5-methyl-1H-benzo[d]imidazol-1-yl)prop-1-en-1-yl)piperidin-3-ol] | 100 to 500 nM |
| O=[N+]([O-])c1c(Br)ccc2c1ncn2C/C=C/[C@H]1NCCC[C@@H]1O [Example 176, (2R,3S)-2-((E)-3-(5-bromo-4-nitro-1H-benzo[d]imidazol-1-yl)prop-1-en-1-yl)piperidin-3-ol] | ≥ 500 nM |
| O=[N+]([O-])c1c(Br)ccc2ncn(C/C=C/[C@H]3NCCC[C@@H]3O)c12 [Example 177, (2R,3S)-2-((E)-3-(6-bromo-7-nitro-1H-benzo[d]imidazol-1-yl)prop-1-en-1-yl)piperidin-3-ol] | ≥ 500 nM |
| O=[N+]([O-])c1ccc2c(ncn2C/C=C/[C@H]2NCCC[C@@H]2O)c1Cl [Example 178, (2R,3S)-2-((E)-3-(4-chloro-5-nitro-1H-benzo[d]imidazol-1-yl)prop-1-en-1-yl)piperidin-3-ol] | 100 to 500 nM |
| O[C@H]1CCCN[C@@H]1/C=C/Cn1cnc2c(F)cc(F)cc21 [Example 179, (2R,3S)-2-((E)-3-(4,6-difluoro-1H-benzo[d]imidazol-1-yl)prop-1-en-1-yl)piperidin-3-ol] | 100 to 500 nM |
| Cc1cc(Cl)cc2c1ncn2C/C=C/[C@H]1NCCC[C@@H]1O [Example 180, (2R,3S)-2-((E)-3-(6-chloro-4-methyl-1H-benzo[d]imidazol-1-yl)prop-1-en-1-yl)piperidin-3-ol] | 100 to 500 nM |
| O[C@H]1CCCN[C@@H]1/C=C/Cn1cnc2cc(C(F)(F)F)cc(Cl)c21 [Example 181, (2R,3S)-2-((E)-3-(7-chloro-5-(trifluoromethyl)-1H-benzo[d]imidazol-1-yl)prop-1-en-1-yl)piperidin-3-ol] | 100 to 500 nM |
| O[C@H]1CCCN[C@@H]1/C=C/Cn1cnc2cc(Cl)cc(Cl)c21 [Example 182, (2R,3S)-2-((E)-3-(5,7-dichloro-1H-benzo[d]imidazol-1-yl)prop-1-en-1-yl)piperidin-3-ol] | ≤ 100 nM |
| O[C@H]1CCCN[C@@H]1/C=C/Cn1cnc2cc(Cl)cc(F)c21 [Example 183, (2R,3S)-2-((E)-3-(5-chloro-7-fluoro-1H-benzo[d]imidazol-1-yl)prop-1-en-1-yl)piperidin-3-ol] | 100 to 500 nM |
| O[C@H]1CCCN[C@@H]1/C=C/Cn1cnc2nc(Br)ccc21 [Example 184, (2R,3S)-2-((E)-3-(5-bromo-1H-imidazo[4,5-b]pyridin-1-yl)prop-1-en-1-yl)piperidin-3-ol] | ≥ 500 nM |
| O[C@H]1CCCN[C@@H]1/C=C/Cn1cnc2c(Cl)c(-c3cccc(Cl)c3)cnc21 [Example 185, (2R,3S)-2-((E)-3-(7-chloro-6-(3-chlorophenyl)-3H-imidazo[4,5-b]pyridin-3-yl)prop-1-en-1-yl)piperidin-3-ol] | ≥ 500 nM |
| Cc1c(Br)cnc2c1ncn2C/C=C/[C@H]1NCCC[C@@H]1O [Example 186, (2R,3S)-2-((E)-3-(6-bromo-7-methyl-3H-imidazo[4,5-b]pyridin-3-yl)prop-1-en-1-yl)piperidin-3-ol] | 100 to 500 nM |
| O[C@H]1CCCN[C@@H]1/C=C/Cn1cnc2c(Cl)c(Br)cnc21 [Example 187, (2R,3S)-2-((E)-3-(6-bromo-7-chloro-3H-imidazo[4,5-b]pyridin-3-yl)prop-1l-en-1-yl)piperidin-3-ol] | ≤ 100 nM |

| SMILES | IC50 |
| --- | --- |
| Cc1c(Cl)cnc2c1ncn2C/C=C/[C@H]1NCCC[C@@H]1O [Example 188, (2R,3S)-2-((E)-3-(6-chloro-7-methyl-3H-imidazo[4,5-b]pyridin-3-yl)prop-1-en-1-yl)piperidin-3-ol] | ≥ 500 nM |
| O[C@H]1CCCN[C@@H]1/C=C/Cn1cnc2c(Cl)c(Cl)cnc21 [Example 189, (2R,3S)-2-((E)-3-(6,7-dichloro-3H-imidazo[4,5-b]pyridin-3-yl)prop-1-en-1-yl)piperidin-3-ol] | 100 to 500 nM |
| O[C@H]1CCCN[C@@H]1/C=C/Cn1cnc2ccc(-c3cccc(Cl)c3)cc21 [Example 190, (2R,3S)-2-((E)-3-(6-(3-chlorophenyl)-1H-benzo[d]imidazol-1-yl)prop-1-en-1-yl)piperidin-3-ol] | 100 to 500 nM |
| O[C@H]1CCCN[C@@H]1/C=C/Cn1cnc2ccc(-c3cccc(F)c3)cc21 [Example 191, (2R,3S)-2-((E)-3-(6-(3-fluorophenyl)-1H-benzo[d]imidazol-1-yl)prop-1-en-1-yl)piperidin-3-ol] | 100 to 500 nM |
| O[C@H]1CCCN[C@@H]1/C=C/Cn1cnc2ccc(-c3cccc(C(F)(F)F)c3)cc21 [Example 192, (2R,3S)-2-((E)-3-(6-(3-(trifluoromethyl)phenyl)-1H-benzo[d]imidazol-1-yl)prop-1-enyl)piperidin-3-ol] | 100 to 500 nM |
| Cc1nc2cc(Br)c(F)c(F)c2n1C/C=C/[C@H]1NCCC[C@@H]1O [Example 193, (2R,3S)-2-((E)-3-(5-bromo-6,7-difluoro-2-methyl-1H-benzo[d]imidazol-1-yl)prop-1-en-1-yl)piperidin-3-ol] | ≥ 500 nM |
| O[C@H]1CCCN[C@@H]1/C=C/CN1CCc2ccccc21 [Example 194, (2R,3S)-2-((E)-3-(indolin-1-yl)prop-1-en-1-yl)piperidin-3-ol] | ≥ 500 nM |
| O[C@H]1CCCN[C@@H]1/C=C/CN1CCc2cc(Cl)ccc21 [Example 195, (2R,3S)-2-((E)-3-(5-chloroindolin-1-yl)prop-1-en-1-yl)piperidin-3-ol] | ≥ 500 nM |
| O[C@H]1CCCN[C@@H]1/C=C/Cn1ccc2cccnc21 [Example 196, (2R,3S)-2-((E)-3-(1H-pyrrolo[2,3-b]pyridin-1-yl)prop-1-en-1-yl)piperidin-3-ol] | ≥ 500 nM |
| O[C@H]1CCCN[C@@H]1/C=C/Cn1ccc2ccc(Cl)cc21 [Example 197, (2R,3S)-2-((E)-3-(6-chloro-1H-indol-1-yl)prop-1-en-1-yl)piperidin-3-ol] | ≥ 500 nM |
| O[C@H]1CCCN[C@@H]1/C=C/Cn1ncc2ccc(Cl)cc21 [Example 198, (2R,3S)-2-((E)-3-(6-chloro-1H-indazol-1-yl)prop-1-en-1-yl)piperidin-3-ol] | ≥ 500 nM |
| O[C@H]1CCCN[C@@H]1/C=C/Cn1ccc2c(Cl)ncnc21 [Example 199, (2R,3S)-2-((E)-3-(4-chloro-7H-pyrrolo[2,3-d]pyrimidin-7-yl)prop-1-en-1-yl)piperidin-3-ol] | ≥ 500 nM |
| O[C@H]1CCCN[C@@H]1/C=C/Cn1ncc2cc(Cl)cnc21 [Example 200, (2R,3S)-2-((E)-3-(5-chloro-1H-pyrazolo[3,4-b]pyridin-1-yl)prop-1-en-1-yl)piperidin-3-ol] | ≥ 500 nM |
| Cc1ccc2c(c1)c(C)nn2C/C=C/[C@H]1NCCC[C@@H]1O [Example 201, (2R,3S)-2-((E)-3-(3,5-dimethyl-1H-indazol-1-yl)prop-1-en-1-yl)piperidin-3-ol] | ≥ 500 nM |
| COC(=O)c1cn(C/C=C/[C@H]2NCCC[C@@H]2O)c2c(Br)cccc12 [Example 202, methyl 7-bromo-1-((E)-3-((2R,3S)-3-hydroxypiperidin-2-yl)allyl)-1H-indole-3-carboxylate] | 100 to 500 nM |
| O=C(O)c1cn(C/C=C/[C@H]2NCCC[C@@H]2O)c2c(Br)cccc12 [Example 203, 7-bromo-1-((E)-3-((2R,3S)-3-hydroxypiperidin-2-yl)allyl)-1H-indole-3-carboxylic acid] | ≥ 500 nM |
| O=C(O)c1cn(C/C=C/[C@H]2NCCC[C@@H]2O)c2ccc(Br)cc12 [Example 204, 5-bromo-1-((E)-3-((2R,3S)-3-hydroxypiperidin-2-yl)allyl)-1H-indole-3-carboxylic acid] | ≥ 500 nM |
| O=C(O)c1cn(C/C=C/[C@H]2NCCC[C@@H]2O)c2cccc(Cl)c12 [Example 205, 4-chloro-1-((E)-3-((2R,3S)-3-hydroxypiperidin-2-yl)allyl)-1H-indole-3-carboxylic acid] | ≥ 500 nM |
| O=C(O)c1cn(C/C=C/[C@H]2NCCC[C@@H]2O)c2cc(Cl)ccc12 [Example 206, 6-chloro-1-((E)-3-((2R,3S)-3-hydroxypiperidin-2-yl)allyl)-1H-indole-3-carboxylic acid] | ≥ 500 nM |
| O=C(O)c1cn(C/C=C/[C@H]2NCCC[C@@H]2O)c2c(Cl)cccc12 [Example 207, 7-chloro-1-((E)-3-((2R,3S)-3-hydroxypiperidin-2-yl)allyl)-1H-indole-3-carboxylic acid] | ≥ 500 nM |
